The test system of series [1] is VEGF promoter. The series is described as follows: VEGF transcription inhibitory activity, VEGF-PLAP reporter in U251/1-8 cells under hypoxic conditions. It counts as cell-based. The conditions noted are these: Homo sapiens, U-251, hypoxic (2% O2) incubator 18 hours, PLAP activity in culture supernatant. The source says: In order to prepare a reporter system in which transcription from a VEGF promoter is reflected, a VEGF promoter sequence was cloned and inserted into a placental alkaline phosphatase (PLAP) vector to construct a reporter vector.
In order to obtain a promoter region of human VEGF, a VEGF genome was cloned from a phage library. Based on VEGF cDNA (GenBank accession number: X62568), a PCR primer with the sequence described as SEQ ID NO: 1 or SEQ ID NO: 2 was designed and used for conducting PCR, thereby obtaining a fragment of about 340 bp. A human genomic phage library (human genomic library, Clontech) was screened using this fragment as a probe to obtain pUC18-VEGFA containing a VEGF 5′-flanking region of about 5.4 kb. This pUC18-VEGFA was cut with Kpn I/Nhe I to obtain a VEGF promoter region of about 2.3 kb, and the region was inserted into the multicloning site Kpn I/Nhe I of the placental alkaline phosphatase (PLAP) reporter vector (Goto et al., Mol. Pharmacol., 49, 860-873, 1996) to construct a VEGF-PLAP vector.
The above-described VEGF-PLAP vector was introduced into U251 cells cultured in a Dulbecco's modified Eagle's medium containing 10% fetal bovine serum (DMEM, manufactured by Sigma Co.), and cultured in the presence of 1 mg/ml G418 (Merck & Co., Inc.) to establish a G418-resistant stable clone (U251/1-8 cells).
As in a report by Minchenko et al. (Cell. Mol. Biol. Res., 40, 35-39, 1994), U251/1-8 cells were confirmed to be a reporter system which secretes PLAP into a culture medium under hypoxic conditions (2% O2 incubator), and in which transcription from a VEGF promoter is reflected. […]
The cells were cultured in a CO2 incubator (5% CO2) at 37° C. overnight, and 20 μl of the above-described culture solution containing the test compound at threefold serial dilutions was added. […] After the reaction for one hour, chemiluminescence was detected using a microplate reader (PerkinElmer) to measure the PLAP activity as the alkaline phosphatase activity. […] The IC50 values of compounds of the formula (I) were determined.

Series [2] deals with WiDr human colon cancer cells. The series is described as follows: Action of inhibiting proliferation of WiDr human colon cancer cells (MTT). Type of series: cell-based. To be noted: 72 h, three days culture, read-out: WiDr human colon cancer cell proliferation inhibitory activity (IC50: nM). The procedure:
2×10^3 cells/well of WiDr human colon cancer cells cultured in a Dulbecco's modified Eagle's medium containing 10% fetal bovine serum, penicillin (100 units/mL) and streptomycin (100 μg/mL) (DMEM, manufactured by Sigma Co.) were plated in a 96-well plate. The cells were cultured in a CO2 incubator overnight, and 20 μL of the above-described culture solution containing the test compound at threefold serial dilutions was added for culturing the cells. After three days, 50 μL of a 3.3 mg/mL MTT solution was added, and the cells were further cultured for one hour. Then, formazan generated by reduction by living cells was extracted with 100 μL of DMSO to measure the absorbance (A540/A660), which was used as an index of the number of living cells.
The concentration for inhibiting 50% of proliferation of WiDr human colon cancer cells (IC50 value) of the compound of the formula (I) was determined.

Series [3] deals with HL-60 human leukemia cells. To be noted: RPM-1640 culture medium; cited from earlier work.
Series [4] concerns P388 mouse leukemia cells. To be noted: in vivo experiment using P388 mouse leukemia cells; cited from earlier work.
Series [5] is described as follows: Stability in an aqueous solution.
The subject of series [6] is P388 mouse leukemia cells. The conditions noted are these: RPM-1640 culture medium; cited from earlier work.
For series [7], the system named is L-1210 mouse leukemia cells. The conditions noted are these: RPM-1640 culture medium; cited from earlier work.

The text below walks through data of patent US7576204B2, “Heterocyclic macrolide pharmaceutical agent, a method of producing the same and use of the same” (priority 2002, dated 2009).

For the molecule `CCC(OC(=O)c1ccccc1)C(C)C1OC1CC(C)/C=C/C=C(\C)C1OC(=O)CC(O)CCC(C)(O)C(OC(=O)N2CCN(C)CC2)/C=C/C1C` (centres unmarked) [Example 1, (8E,12E,14E)-21-benzoyloxy-3,6-dihydroxy-6,10,12,16,20-pentamethyl-7-((4-methylpiperazin-1-yl)carbonyl)oxy-18,19-epoxytricosa-8,12,14-trien-11-olide], the IC50 in series [1] turned out to be 20.7 nM; in series [2] it was 5.9 nM.

With `CCC(OC)C(C)C1OC1C(O)C(C)/C=C/C=C(\C)C1OC(=O)CC(O)CCC(C)(O)C(OC(C)=O)/C=C/C1C` (centres unmarked) [FD-895], the “Cytotoxic activity in vitro” value in series [3], in series [6] and in series [7] was “has cytotoxic activity in vitro” each time. For the same molecule, in series [4], the “Antitumor activity in vivo” value is listed as “did not show antitumor activity”. Further, the “Stability in an aqueous solution” value in series [5] was “instable in an aqueous solution”.

Consider `CCC(OC(=O)Nc1ccccc1)C(C)C1OC1CC(C)/C=C/C=C(\C)C1OC(=O)CC(O)CCC(C)(O)C(OC(=O)N2CCN(C)CC2)/C=C/C1C` (centres unmarked) [Example 3, (8E,12E,14E)-3,6-dihydroxy-6,10,12,16,20-pentamethyl-7-((4-methylpiperazin-1-yl)carbonyl)oxy-21-(N-phenylcarbamoyloxy)-18,19-epoxytricosa-8,12,14-trien-11-olide], for which the IC50 in series [1] amounted to 11.8 nM; in series [2], 4.8 nM.

`CCC(OC(=O)N(C)C)C(C)C1OC1CC(C)/C=C/C=C(\C)C1OC(=O)CC(O)CCC(C)(O)C(OC(=O)N2CCN(C)CC2)/C=C/C1C` (centres unmarked) [Example 2, (8E,12E,14E)-21-(N,N-dimethylcarbamoyloxy)-3,6-dihydroxy-6,10,12,16,20-pentamethyl-7-((4-methylpiperazin-1-yl)carbonyl)oxy-18,19-epoxytricosa-8,12,14-trien-11-olide]: the figures for the IC50 in series [1] and in series [2] were 4.2 nM and 2.4 nM, respectively.
